Measurements: ChEMBL document CHEMBL3608254, “Discovery of novel triazolobenzazepinones as γ-secretase modulators with central Aβ42 lowering in rodents and rhesus monkeys” (Bioorg Med Chem Lett, 2015)
Activity calls are given as the source filed them. The rule behind the calls is not given here.

Legend:
Gamma-secretase [1] = test: Inhibition of gamma-secretase in human SH-SY5Y cells expressing beta-APP C-terminal fragment SPA4CT assessed as decrease of amyloid beta-40 level by electrochemiluminescent method; type: cell-based
Gamma-secretase [2] = test: Inhibition of gamma-secretase in human SH-SY5Y cells expressing beta-APP C-terminal fragment SPA4CT assessed as decrease of amyloid beta-42 level by electrochemiluminescent method; type: cell-based
[3] = Inhibition of gamma-secretase-mediated cleavage of NotchdeltaE in human HeLa cells expressing NotchdeltaE assessed as intracellular release of Notch intracellular domain (NICD)/N-terminal luciferase by luminescent method; type: cell-based
Mus musculus = test: Antialzheimer's disease activity in po dosed APP-YAC transgenic mouse assessed as reduction of amyloid beta-40/42 level in brain measured after 6 hrs; type: functional
Rattus norvegicus = test: Antialzheimer's disease activity in po dosed Sprague-Dawley rat assessed as reduction of amyloid beta-40/42 level in brain measured after 6 hrs; type: functional
[4] = molecular target: Voltage-gated inwardly rectifying potassium channel KCNH2 (Homo sapiens, UniProt Q12809)
Description: Binding affinity to human ERG expressed in HEK cells by MK-499 radioligand displacement assay

[5] = Half life in rat liver microsomes; type: ADME
[6] = molecular target: Sodium-dependent serotonin transporter (Homo sapiens, UniProt P31645); test: Inhibition of SERT (unknown origin)
Chain of Sodium-dependent serotonin transporter (P31645 whole entry, looked up): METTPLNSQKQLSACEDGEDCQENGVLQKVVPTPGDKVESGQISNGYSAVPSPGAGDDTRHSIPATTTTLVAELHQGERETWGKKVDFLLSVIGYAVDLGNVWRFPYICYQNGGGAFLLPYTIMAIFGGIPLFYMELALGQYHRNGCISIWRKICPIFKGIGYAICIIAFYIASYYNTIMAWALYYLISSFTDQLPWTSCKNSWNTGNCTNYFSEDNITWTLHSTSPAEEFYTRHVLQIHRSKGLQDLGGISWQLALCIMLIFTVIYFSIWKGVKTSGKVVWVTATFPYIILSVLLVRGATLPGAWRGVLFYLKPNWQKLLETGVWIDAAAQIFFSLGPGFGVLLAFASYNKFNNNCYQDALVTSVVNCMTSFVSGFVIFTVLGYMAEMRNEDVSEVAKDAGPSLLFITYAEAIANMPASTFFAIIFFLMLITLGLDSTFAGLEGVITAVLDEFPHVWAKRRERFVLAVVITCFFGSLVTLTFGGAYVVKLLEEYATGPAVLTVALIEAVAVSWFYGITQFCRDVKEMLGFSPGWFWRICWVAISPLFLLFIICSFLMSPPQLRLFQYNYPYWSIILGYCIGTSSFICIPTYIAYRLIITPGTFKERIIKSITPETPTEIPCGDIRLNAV

Chain of Voltage-gated inwardly rectifying potassium channel KCNH2 (Q12809 whole entry): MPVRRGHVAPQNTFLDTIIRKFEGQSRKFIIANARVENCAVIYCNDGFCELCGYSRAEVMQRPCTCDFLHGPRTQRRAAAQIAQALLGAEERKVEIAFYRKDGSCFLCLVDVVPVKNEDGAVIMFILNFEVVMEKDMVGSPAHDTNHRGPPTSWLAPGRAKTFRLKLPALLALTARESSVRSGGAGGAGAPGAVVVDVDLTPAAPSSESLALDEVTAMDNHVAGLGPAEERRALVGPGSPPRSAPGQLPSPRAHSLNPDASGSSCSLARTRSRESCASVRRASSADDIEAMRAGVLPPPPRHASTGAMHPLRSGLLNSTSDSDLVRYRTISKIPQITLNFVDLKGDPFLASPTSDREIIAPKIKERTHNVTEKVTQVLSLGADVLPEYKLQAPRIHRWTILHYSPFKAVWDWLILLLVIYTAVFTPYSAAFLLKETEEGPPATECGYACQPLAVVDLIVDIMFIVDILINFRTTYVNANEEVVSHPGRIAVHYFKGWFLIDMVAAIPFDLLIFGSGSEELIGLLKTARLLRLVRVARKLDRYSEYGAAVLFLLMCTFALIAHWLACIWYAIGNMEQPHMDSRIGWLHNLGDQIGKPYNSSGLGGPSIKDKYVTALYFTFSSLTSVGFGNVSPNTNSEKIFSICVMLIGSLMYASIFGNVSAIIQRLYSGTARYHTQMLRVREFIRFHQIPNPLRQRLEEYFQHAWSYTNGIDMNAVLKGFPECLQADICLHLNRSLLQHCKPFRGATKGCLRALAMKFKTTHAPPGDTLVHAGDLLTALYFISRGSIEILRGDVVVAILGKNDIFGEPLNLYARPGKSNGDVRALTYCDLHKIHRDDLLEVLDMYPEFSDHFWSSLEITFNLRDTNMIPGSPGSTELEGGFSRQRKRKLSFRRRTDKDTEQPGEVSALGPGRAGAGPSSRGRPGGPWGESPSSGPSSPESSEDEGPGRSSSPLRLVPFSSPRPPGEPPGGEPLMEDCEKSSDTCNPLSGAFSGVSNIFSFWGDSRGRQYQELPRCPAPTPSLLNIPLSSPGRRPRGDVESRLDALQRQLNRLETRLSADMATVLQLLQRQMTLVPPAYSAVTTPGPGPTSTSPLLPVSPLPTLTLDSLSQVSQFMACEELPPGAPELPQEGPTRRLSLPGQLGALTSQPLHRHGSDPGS

| Compound | IC50 (Gamma-secretase [1]) [nM] | IC50 (Gamma-secretase [2]) [nM] | IC50 [3] [nM] | half-life [5] [h] | inhibition [6] | Activity (Mus musculus) | Activity (Rattus norvegicus) | IC50 [4] [nM] |
| --- | --- | --- | --- | --- | --- | --- | --- | --- |
| COc1cc(-c2cn(C3CCc4ccccc4N(Cc4ccncc4)C3=O)nn2)ccc1-n1cnc(C)c1 (racemic) | 6750 | 1190 | > 50000 | – | – | – | – | – |
| COc1cc(-c2cn(C3(C)CCc4ccccc4N(CC(F)(F)F)C3=O)nn2)ccc1-n1cnc(C)c1 (centres undefined) | 6380 | 580 | > 50000 | – | – | Active | Active | 6000 |
| COc1cc(-c2cn(C3CCc4ccccc4N(Cc4cccnc4)C3=O)nn2)ccc1-n1cnc(C)c1 (racemic) | 4690 | 880 | > 50000 | – | – | – | – | – |
| COc1cc(-c2cn(C3CCc4ccccc4N(Cc4ccccn4)C3=O)nn2)ccc1-n1cnc(C)c1 (racemic) | 5400 | 1080 | > 50000 | – | – | – | – | – |
| COc1cc(-c2cn(C3CCc4ccccc4N(CC4(C)COC4)C3=O)nn2)ccc1-n1cnc(C)c1 (racemic) | 7480 | 1250 | > 50000 | – | – | – | – | – |

Now from value to compound, other results behind:

| IC50 (Gamma-secretase [1]) [nM] | IC50 (Gamma-secretase [2]) [nM] | IC50 [3] [nM] | half-life [5] [h] | inhibition [6] | Compound | Activity (Mus musculus) | Activity (Rattus norvegicus) | IC50 [4] [nM] |
| --- | --- | --- | --- | --- | --- | --- | --- | --- |
| 150 | 40 | > 50000 | – | – | COc1cc(-c2cn(C3CCc4c(F)cc(F)cc4N(CC(F)(F)F)C3=O)nn2)ccc1-n1cnc(C)c1 (centres undefined) | Active | Active | – |
| 190 | 40 | 34100 | – | – | COc1cc(-c2cn(C3CCc4cc(F)ccc4N(CC(F)(F)F)C3=O)nn2)ccc1-n1cnc(C)c1 (centres undefined) | Active | Active | 2680 |
| 170 | 40 | 36600 | 1.2 | – | COc1cc(-c2cn([C@H]3C[C@H](C)c4ccccc4N(CC(F)(F)F)C3=O)nn2)ccc1-n1cnc(C)c1 | Active | Active | 6680 |
| 940 | 150 | 41800 | – | inactive | COc1cc(-c2cn(C3CCc4ncccc4N(CC(F)(F)F)C3=O)nn2)ccc1-n1cnc(C)c1 (centres undefined) | Active | Active | > 50000 |
| 50 | 10 | > 50000 | – | – | COc1cc(-c2cn(C3CCc4c(ccc(Br)c4F)N(CC(F)(F)F)C3=O)nn2)ccc1-n1cnc(C)c1 (centres undefined) | Active | Active | 530 |
| 70 | 30 | > 50000 | – | – | COc1cc(-c2cn(C3CCc4c(ccc5ccccc45)N(CC(F)(F)F)C3=O)nn2)ccc1-n1cnc(C)c1 (centres undefined) | Active | Active | – |
